Key:
[1] = target: T1, Epidermal growth factor receptor (Homo sapiens, UniProt P00533); assay: Inhibition of wild-type EGFR in human NCI-H2122 cells assessed as reduction in P70S6K phosphorylation at Thr389 site at 0.01 to 3 uM by Western blot analysis; format: cell-based
[2] = target: T1, Epidermal growth factor receptor; assay: Inhibition of wild-type EGFR in human A549 cells assessed as reduction in STAT3 phosphorylation at Y705 site at 0.01 to 3 uM by Western blot analysis; format: cell-based; conditions: a549, 3 µM
[3] = target: T2, Tyrosine-protein kinase Blk (Homo sapiens, UniProt P51451); assay: Binding affinity to wild-type human BLK expressed in bacterial system assessed as control score at 1 uM by KINOMEScan assay
[4] = target: Insulin-like growth factor 1 receptor (Homo sapiens) (UniProt P08069); assay: Inhibition of Tel-fused IGF1R (unknown origin) expressed in mouse BAF3 cells assessed as growth inhibition after 72 hrs by CellTiter-Glo assay; format: cell-based
Sequence of Insulin-like growth factor 1 receptor (Homo sapiens) (P08069 31-736 limits assumed): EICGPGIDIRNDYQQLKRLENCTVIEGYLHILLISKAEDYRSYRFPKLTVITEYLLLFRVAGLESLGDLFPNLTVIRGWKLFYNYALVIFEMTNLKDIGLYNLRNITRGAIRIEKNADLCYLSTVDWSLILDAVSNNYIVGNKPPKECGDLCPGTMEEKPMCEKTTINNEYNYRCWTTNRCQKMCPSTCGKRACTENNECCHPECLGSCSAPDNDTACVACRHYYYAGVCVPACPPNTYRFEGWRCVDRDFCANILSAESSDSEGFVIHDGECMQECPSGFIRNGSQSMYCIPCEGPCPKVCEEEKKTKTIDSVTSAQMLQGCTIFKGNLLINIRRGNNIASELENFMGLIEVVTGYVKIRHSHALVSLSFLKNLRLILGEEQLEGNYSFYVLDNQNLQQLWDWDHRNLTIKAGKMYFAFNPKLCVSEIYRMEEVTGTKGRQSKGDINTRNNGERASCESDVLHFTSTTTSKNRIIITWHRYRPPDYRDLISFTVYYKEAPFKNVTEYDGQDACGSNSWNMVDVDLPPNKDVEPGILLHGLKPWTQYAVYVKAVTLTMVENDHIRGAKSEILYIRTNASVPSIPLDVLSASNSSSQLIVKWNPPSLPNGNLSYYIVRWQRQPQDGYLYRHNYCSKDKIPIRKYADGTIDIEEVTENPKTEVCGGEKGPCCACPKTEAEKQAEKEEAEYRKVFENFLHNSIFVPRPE
Sequence of Insulin-like growth factor 1 receptor (Homo sapiens) (P08069 741-1367 limits assumed): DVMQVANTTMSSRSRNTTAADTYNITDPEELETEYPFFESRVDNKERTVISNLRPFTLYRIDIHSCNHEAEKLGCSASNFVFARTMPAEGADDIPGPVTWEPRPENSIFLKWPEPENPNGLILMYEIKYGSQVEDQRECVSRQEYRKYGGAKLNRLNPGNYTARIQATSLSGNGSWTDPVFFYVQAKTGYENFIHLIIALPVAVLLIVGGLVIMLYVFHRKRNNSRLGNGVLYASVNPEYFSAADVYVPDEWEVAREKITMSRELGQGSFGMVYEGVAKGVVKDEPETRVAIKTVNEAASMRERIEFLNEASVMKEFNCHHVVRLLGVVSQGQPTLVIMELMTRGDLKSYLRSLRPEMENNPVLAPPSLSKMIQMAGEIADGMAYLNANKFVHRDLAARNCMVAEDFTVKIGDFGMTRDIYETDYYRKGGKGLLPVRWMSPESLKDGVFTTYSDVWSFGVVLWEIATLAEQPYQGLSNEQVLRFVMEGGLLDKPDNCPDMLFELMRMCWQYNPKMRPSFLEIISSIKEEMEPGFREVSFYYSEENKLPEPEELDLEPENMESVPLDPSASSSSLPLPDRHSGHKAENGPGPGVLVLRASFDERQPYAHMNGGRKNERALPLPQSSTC

[5] = target: T1, Epidermal growth factor receptor; assay: Inhibition of wild-type EGFR in human A549 cells assessed as reduction in ERK phosphorylation at Thr202/Tyr204 site at 0.01 to 3 uM by Western blot analysis; format: cell-based; conditions: a549, 3 µM
[6] = Half life in Sprague-Dawley rat plasma at 1 mg/kg, iv after 8 hrs; format: ADME, organism-based
[7] = target: Tyrosine-protein kinase BTK (Homo sapiens, UniProt Q06187); assay: Binding affinity to full-length wild-type human BTK expressed in mammalian system assessed as control score at 1 uM by KINOMEScan assay
[8] = target: Cytoplasmic tyrosine-protein kinase BMX (Homo sapiens) (UniProt P51813); assay: Binding affinity to wild-type human BMX expressed in bacterial system assessed as control score at 1 uM by KINOMEScan assay
Sequence of Cytoplasmic tyrosine-protein kinase BMX (Homo sapiens) (P51813 whole entry): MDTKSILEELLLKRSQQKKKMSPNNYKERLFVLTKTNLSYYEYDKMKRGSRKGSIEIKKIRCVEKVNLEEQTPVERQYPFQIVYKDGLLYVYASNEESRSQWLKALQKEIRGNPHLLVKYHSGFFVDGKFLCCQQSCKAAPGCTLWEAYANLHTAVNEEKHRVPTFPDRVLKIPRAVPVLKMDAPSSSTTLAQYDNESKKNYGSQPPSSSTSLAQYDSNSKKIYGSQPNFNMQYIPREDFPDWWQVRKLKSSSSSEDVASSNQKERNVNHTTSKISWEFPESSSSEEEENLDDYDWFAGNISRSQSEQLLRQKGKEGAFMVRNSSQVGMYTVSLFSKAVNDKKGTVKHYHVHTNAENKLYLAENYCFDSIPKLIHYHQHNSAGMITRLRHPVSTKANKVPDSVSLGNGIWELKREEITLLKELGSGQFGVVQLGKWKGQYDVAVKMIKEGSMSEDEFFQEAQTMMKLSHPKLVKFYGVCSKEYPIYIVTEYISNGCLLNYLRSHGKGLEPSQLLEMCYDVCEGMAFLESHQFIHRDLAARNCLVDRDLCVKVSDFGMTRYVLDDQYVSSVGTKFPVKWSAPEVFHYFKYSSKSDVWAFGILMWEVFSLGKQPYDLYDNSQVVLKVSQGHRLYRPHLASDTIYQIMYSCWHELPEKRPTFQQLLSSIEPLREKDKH

Rattus norvegicus [9] = assay: AUC (0 to t) in Sprague-Dawley rat plasma at 1 mg/kg, iv after 8 hrs; format: ADME, organism-based; parameters: time < 8 hr, dose 1 mg/kg, route intravenous; conditions: in vivo
[10] = target: T1, Epidermal growth factor receptor; assay: Inhibition of wild type EGFR autophosphorylation at Y1068 in human A549 cells at 0.01 to 3 uM after 4 hrs by Western blot analysis; format: cell-based; conditions: a549, 4 h
[11] = target: T1, Epidermal growth factor receptor; assay: Inhibition of Tel-fused EGFR (unknown origin) expressed in mouse BAF3 cells assessed as growth inhibition after 72 hrs by CellTiter-Glo assay; format: cell-based
[12] = target: Epidermal growth factor receptor (Homo sapiens, UniProt P00533, L858R); assay: Inhibition of EGFR L858R mutant expressed in human H3255 cells assessed as reduction in ERK phosphorylation at Thr202/Tyr204 measured after 4 hrs by Western blot analysis; format: cell-based
[13] = target: T1, Epidermal growth factor receptor; assay: Inhibition of wild-type EGFR in human NCI-H2122 cells assessed as reduction in Akt phosphorylation at 308 site at 0.01 to 3 uM by Western blot analysis; format: cell-based
[14] = target: T1, Epidermal growth factor receptor; assay: Inhibition of wild-type EGFR in human NCI-H2122 cells assessed as growth inhibition after 72 hrs by CellTiter-Glo assay; format: cell-based
[15] = target: T1, Epidermal growth factor receptor; assay: Inhibition of wild-type EGFR in human A549 cells assessed as reduction in eIF4E phosphorylation at Ser209 site at 0.01 to 3 uM by Western blot analysis; format: cell-based; conditions: a549, 3 µM
[16] = target: T1, Epidermal growth factor receptor; assay: Inhibition of wild-type EGFR in human A549 cells assessed as reduction in Akt phosphorylation at 308 site at 0.01 to 3 uM by Western blot analysis; format: cell-based; conditions: a549, 3 µM
[17] = target: T1, Epidermal growth factor receptor; assay: Inhibition of wild-type EGFR in human A549 cells assessed as reduction in 4EBP1 phosphorylation at Thr37/46 site at 0.01 to 3 uM by Western blot analysis; format: cell-based; conditions: a549, 3 µM
Rattus norvegicus [18] = assay: AUC (0 to infinity) in Sprague-Dawley rat plasma at 1 mg/kg, iv after 8 hrs; format: ADME, organism-based; parameters: dose 1 mg/kg, route intravenous, time infinity; conditions: in vivo
[19] = Tmax in Sprague-Dawley rat plasma at 1 mg/kg, iv after 8 hrs; format: ADME, organism-based
[20] = target: T1, Epidermal growth factor receptor; assay: Inhibition of wild-type EGFR in human H1355 cells assessed as growth inhibition after 72 hrs by CellTiter-Glo assay; format: cell-based
[21] = target: T1, Epidermal growth factor receptor; assay: Inhibition of wild-type EGFR in human NCI-H2122 cells assessed as reduction in ERK phosphorylation at Thr202/Tyr204 site at 0.01 to 3 uM by Western blot analysis; format: cell-based
[22] = target: T1, Epidermal growth factor receptor; assay: Inhibition of wild-type EGFR in human NCI-H2122 cells assessed as reduction in 4EBP1 phosphorylation at Thr37/46 site at 0.01 to 3 uM by Western blot analysis; format: cell-based
[23] = target: T1, Epidermal growth factor receptor; assay: Inhibition of wild-type EGFR in human A549 cells assessed as reduction in Akt phosphorylation at 473 site at 0.01 to 3 uM by Western blot analysis; format: cell-based; conditions: a549, 3 µM
[24] = target: Insulin receptor (Homo sapiens) (UniProt P06213); assay: Inhibition of Tel-fused INSR (unknown origin) expressed in mouse BAF3 cells assessed as growth inhibition after 72 hrs by CellTiter-Glo assay; format: cell-based
[25] = Tmax in Sprague-Dawley rat plasma at 10 mg/kg, po after 24 hrs; format: ADME, organism-based
[26] = target: T1, Epidermal growth factor receptor; assay: Inhibition of wild type EGFR autophosphorylation at Y1068 in human NCI-H2122 cells at 0.01 to 3 uM after 4 hrs by Western blot analysis; format: cell-based
[27] = target: Epidermal growth factor receptor (Homo sapiens, UniProt P00533, EX19DEL); assay: Inhibition of EGFR exon 19 deletion mutant in human HCC827 cells assessed as reduction in ERK phosphorylation at Thr202/Tyr204 measured after 4 hrs by Western blot analysis; format: cell-based
[28] = Apparent plasma clearance in Sprague-Dawley rat at 1 mg/kg, iv after 8 hrs; format: ADME, organism-based
[29] = Half life in Sprague-Dawley rat plasma at 10 mg/kg, po after 24 hrs; format: ADME, organism-based
[30] = target: Epidermal growth factor receptor (Homo sapiens, UniProt P00533, L858R/T790M); assay: Inhibition of EGFR T790M/L858R mutant (unknown origin) autophosphorylation at Y1068 expressed in mouse BAF3 cells after 4 hrs by Western blot analysis; format: cell-based
[31] = target: T1, Epidermal growth factor receptor; assay: Inhibition of wild-type EGFR in human NCI-H2122 cells assessed as reduction in eIF4E phosphorylation at Ser209 site at 0.01 to 3 uM by Western blot analysis; format: cell-based
[32] = target: T1, Epidermal growth factor receptor; assay: Inhibition of wild-type EGFR in human A549 cells assessed as reduction in P70S6K phosphorylation at Thr389 site at 0.01 to 3 uM by Western blot analysis; format: cell-based; conditions: a549, 3 µM
[33] = target: T2, Tyrosine-protein kinase Blk; assay: Inhibition of full-length recombinant human His-tagged BLK expressed in baculovirus by Z'-LYTE assay
Target sequence in this assay (P51451 whole entry, the tested form may be a part): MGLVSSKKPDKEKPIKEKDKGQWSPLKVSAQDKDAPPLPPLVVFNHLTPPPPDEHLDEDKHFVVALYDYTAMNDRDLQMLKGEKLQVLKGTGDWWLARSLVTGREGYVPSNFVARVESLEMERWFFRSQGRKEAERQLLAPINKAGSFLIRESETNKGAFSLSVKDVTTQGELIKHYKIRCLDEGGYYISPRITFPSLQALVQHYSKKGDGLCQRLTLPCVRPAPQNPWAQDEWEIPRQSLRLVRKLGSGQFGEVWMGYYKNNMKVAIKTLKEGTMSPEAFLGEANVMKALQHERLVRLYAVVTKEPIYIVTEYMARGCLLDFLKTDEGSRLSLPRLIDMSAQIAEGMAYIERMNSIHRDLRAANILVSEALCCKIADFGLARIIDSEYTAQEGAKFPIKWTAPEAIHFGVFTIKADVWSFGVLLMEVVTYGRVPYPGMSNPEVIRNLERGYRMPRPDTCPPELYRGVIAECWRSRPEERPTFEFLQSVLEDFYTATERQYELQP

[34] = MRT (0 to infinity) in Sprague-Dawley rat plasma at 10 mg/kg, po after 24 hrs; format: ADME, organism-based
[35] = target: Receptor tyrosine-protein kinase erbB-2 (Homo sapiens, UniProt P04626); assay: Binding affinity to wild-type human ERBB2 expressed in mammalian system assessed as control score at 1 uM by KINOMEScan assay
Sequence of Receptor tyrosine-protein kinase erbB-2 (P04626 whole entry, the tested form may be a part): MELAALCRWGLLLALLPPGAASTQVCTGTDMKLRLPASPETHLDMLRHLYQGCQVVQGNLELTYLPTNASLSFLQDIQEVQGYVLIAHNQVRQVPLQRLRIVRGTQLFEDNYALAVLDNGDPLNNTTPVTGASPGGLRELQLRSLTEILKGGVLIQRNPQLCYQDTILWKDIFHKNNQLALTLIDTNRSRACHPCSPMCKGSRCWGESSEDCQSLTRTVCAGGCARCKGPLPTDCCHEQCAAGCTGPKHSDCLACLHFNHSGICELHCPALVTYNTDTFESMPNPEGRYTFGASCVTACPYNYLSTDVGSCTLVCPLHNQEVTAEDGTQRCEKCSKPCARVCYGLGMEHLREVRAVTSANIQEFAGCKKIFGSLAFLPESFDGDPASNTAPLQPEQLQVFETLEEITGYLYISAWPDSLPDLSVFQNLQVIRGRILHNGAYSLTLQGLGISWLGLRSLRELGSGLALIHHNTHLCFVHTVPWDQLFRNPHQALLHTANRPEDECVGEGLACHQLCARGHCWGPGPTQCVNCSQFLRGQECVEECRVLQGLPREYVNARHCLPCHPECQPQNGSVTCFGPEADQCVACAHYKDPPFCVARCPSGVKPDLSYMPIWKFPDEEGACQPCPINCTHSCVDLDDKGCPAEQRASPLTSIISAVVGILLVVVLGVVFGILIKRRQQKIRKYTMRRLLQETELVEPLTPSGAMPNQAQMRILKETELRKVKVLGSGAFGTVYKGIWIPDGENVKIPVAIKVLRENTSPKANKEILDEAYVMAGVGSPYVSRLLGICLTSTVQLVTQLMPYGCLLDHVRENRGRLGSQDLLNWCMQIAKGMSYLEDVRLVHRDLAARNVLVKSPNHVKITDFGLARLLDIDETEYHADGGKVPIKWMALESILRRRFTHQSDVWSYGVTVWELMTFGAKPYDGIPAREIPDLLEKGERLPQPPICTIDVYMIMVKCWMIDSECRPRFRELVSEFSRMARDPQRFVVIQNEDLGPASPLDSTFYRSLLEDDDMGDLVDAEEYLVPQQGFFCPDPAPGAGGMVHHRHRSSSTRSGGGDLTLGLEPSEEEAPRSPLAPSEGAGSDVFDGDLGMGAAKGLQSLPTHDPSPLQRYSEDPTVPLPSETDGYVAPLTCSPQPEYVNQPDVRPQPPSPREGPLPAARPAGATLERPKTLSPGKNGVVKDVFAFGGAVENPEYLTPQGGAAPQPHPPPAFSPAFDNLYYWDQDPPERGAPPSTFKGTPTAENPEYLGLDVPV

[36] = target: T1, Epidermal growth factor receptor; assay: Inhibition of recombinant human GST-tagged EGFR cytoplasmic domain expressed in baculovirus by Z'-LYTE assay

T1 sequence (P00533 whole entry): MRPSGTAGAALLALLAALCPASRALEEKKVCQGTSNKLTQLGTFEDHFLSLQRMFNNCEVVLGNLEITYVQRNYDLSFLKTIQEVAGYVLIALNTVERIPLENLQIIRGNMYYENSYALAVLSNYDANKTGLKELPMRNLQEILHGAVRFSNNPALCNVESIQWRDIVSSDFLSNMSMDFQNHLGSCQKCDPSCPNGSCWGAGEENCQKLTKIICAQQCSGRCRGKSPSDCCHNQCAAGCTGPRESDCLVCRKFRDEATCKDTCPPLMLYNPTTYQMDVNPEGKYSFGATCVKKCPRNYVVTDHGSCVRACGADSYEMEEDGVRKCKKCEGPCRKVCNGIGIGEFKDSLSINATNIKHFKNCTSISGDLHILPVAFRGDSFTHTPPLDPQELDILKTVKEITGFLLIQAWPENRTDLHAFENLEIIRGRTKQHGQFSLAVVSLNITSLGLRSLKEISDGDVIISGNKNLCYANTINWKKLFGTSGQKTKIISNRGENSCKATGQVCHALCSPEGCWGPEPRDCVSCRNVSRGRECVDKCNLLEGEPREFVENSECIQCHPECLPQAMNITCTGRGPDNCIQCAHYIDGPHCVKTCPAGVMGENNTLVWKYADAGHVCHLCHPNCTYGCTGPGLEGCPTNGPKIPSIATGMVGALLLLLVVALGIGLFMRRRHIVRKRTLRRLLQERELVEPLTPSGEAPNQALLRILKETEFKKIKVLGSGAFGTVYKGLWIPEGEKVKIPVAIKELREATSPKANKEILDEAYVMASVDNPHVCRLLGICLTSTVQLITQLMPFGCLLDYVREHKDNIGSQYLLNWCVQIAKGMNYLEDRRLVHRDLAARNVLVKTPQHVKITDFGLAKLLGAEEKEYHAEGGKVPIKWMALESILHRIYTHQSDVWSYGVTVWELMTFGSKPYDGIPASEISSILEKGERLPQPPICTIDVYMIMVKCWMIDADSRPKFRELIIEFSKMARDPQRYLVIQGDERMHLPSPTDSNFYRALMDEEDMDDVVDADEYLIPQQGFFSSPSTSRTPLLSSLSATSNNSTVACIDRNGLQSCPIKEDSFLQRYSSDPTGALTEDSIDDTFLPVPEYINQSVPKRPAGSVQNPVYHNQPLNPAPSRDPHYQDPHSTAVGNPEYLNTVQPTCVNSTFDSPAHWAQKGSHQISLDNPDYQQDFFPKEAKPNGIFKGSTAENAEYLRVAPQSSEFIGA

C=CC(=O)N1CCC[C@@H](n2nc(-c3ccc(OCc4ccccn4)c(Cl)c3)c3c(N)ncnc32)C1
inhibition (INH) [1]: Not Active
inhibition (INH) [2]: Not Active
Activity [3]: 0.7%
GI50 [4]: > 10 µM
inhibition (INH) [5]: Not Active
half-life [6]: 18 min
Activity [7]: 0.05%
Activity [8]: 0.9%
AUCt (Rattus norvegicus [9]): 404 to 2340 ng/mL/h
inhibition (INH) [10]: Active
GI50 [11]: 2000 nM
EC50 [12]: < 10 nM
inhibition (INH) [13]: Not Active
GI50 [14]: > 10 µM
inhibition (INH) [15]: Not Active
inhibition (INH) [16]: Not Active
inhibition (INH) [17]: Not Active
AUC (Rattus norvegicus [18]): 405 ng·h/mL
Tmax [19]: 1.02 min
GI50 [20]: > 10 µM
inhibition (INH) [21]: Not Active
inhibition (INH) [22]: Not Active
inhibition (INH) [23]: Not Active
GI50 [24]: 3.5 µM
Tmax [25]: 34.8 min
inhibition (INH) [26]: Active
EC50 [27]: < 10 nM
clearance [28]: 41.3 mL/min/kg
half-life [29]: 117 min
EC50 [30]: 7 nM
inhibition (INH) [31]: Not Active
inhibition (INH) [32]: Not Active
IC50 [33]: 8.1 nM
MRT inf [34]: 2.55 h
Activity [35]: 0%
IC50 [36]: 8.3 nM

— ChEMBL document CHEMBL4049404, “Discovery of (R)-1-(3-(4-Amino-3-(3-chloro-4-(pyridin-2-ylmethoxy)phenyl)-1H-pyrazolo[3,4-d]pyrimidin-1-yl)piperidin-1-yl)prop-2-en-1-one (CHMFL-EGFR-202) as a Novel Irreversible EGFR Mutant Kinase Inhibitor with a Distinct Binding Mode” (J Med Chem, 2017)
